{"source": "patent US9895335B2", "about": "“Ophthalmic compositions containing a nitric oxide donor” (NICOX SCIENCE IRELAND, priority 2013, dated 2018)", "test_system": "hypertonic saline-induced IOP increase in rabbits", "test": "Intraocular pressure (IOP) lowering activity in hypertonic saline-induced IOP increase in rabbits", "type": "in vivo, New Zealand White rabbits", "set-up": "unit not given here", "details": "topical, versus vehicle and versus basal IOP before hypertonic saline injection", "protocol": "Intraocular Pressure (IOP) Lowering Activity in Hypertonic Saline-Induced IOP Increase in Rabbits\nThe Intraocular pressure (TOP) lowering activity of compound (Ia) (Example 1) was assessed in an animal model of elevated IOP.\nAdults male New Zealand White rabbits weighting 1.8-2.0 Kg were used in the experiments.\nIOP was measured using a Tono-Pen XL prior to hypertonic saline injection (basal) and at 30, 60, 120 and 240 min thereafter. Vehicle (5% cremophor-EL; 0.3% DMSO; 0.2 mg/ml bac in PBS pH 6.0,) or compound (Ia) dissolved in the vehicle at different concentrations (0.1%, 0.3% and 1%) was instilled as eye drops immediately after hypertonic saline injection. Eyes were randomly assigned to different treatment groups. Vehicle or compound (Ia) was directly instilled into the conjunctiva pocket at the desired doses. One drop of 0.4% oxybuprocaine hydrochloride (Novesine, Sandoz) was instilled in each eye immediately before each set of pressure measurements.\nResults are reported in Table in which the ocular hypotensive activity of compound (Ia) at different is expressed as IOP change (at 60 and 120 minutes following topical administration) versus vehicle and versus IOP at basal before hypertonic saline injection.", "data": [{"smiles": "CCCC(=O)OCCCCO[N+](=O)[O-]", "note": "[Compound (Ia), 4-Nitrooxybutan-1-Ol Butyrate]", "values": [{"measurement": "IOP change", "setting": "0.1% eye drops, 60 min after administration", "result": "−10.3 ± 0.3"}, {"measurement": "IOP change", "setting": "0.1% eye drops, 120 min after administration", "result": "−5 ± 1.8"}, {"measurement": "IOP change", "setting": "0.3% eye drops, 60 min after administration", "result": "−16.5 ± 3.8"}, {"measurement": "IOP change", "setting": "0.3% eye drops, 120 min after administration", "result": "−9 ± 2.1"}, {"measurement": "IOP change", "setting": "1% eye drops, 60 min after administration", "result": "−21.1 ± 4.5"}, {"measurement": "IOP change", "setting": "1% eye drops, 120 min after administration", "result": "−15.1 ± 2.3"}]}]}
